Q: For `CCN(CC)CCNC(=O)N1CCC(S(=O)(=O)c2ccc(Cl)cc2)C1` (centres undefined), which melting point is on record?
A: The melting point was 86 to 87.5 °C.

Q: Which melting point does the source give for `COC(=O)COc1cccc2c(O)c(C(C)=O)ccc12` here?
A: Its melting point is 130 to 135 °C.

Q: Which melting point does the source give for `CCSc1c(O[C@H]2CC[C@H](N)CC2)ccc2[nH]ncc12` here?
A: Its melting point is 157 to 158 °C.

Q: Which melting point does the source give for `CC(C)(C)c1nnc(-c2nn(-c3ccc(F)cc3F)c3c2C2CCC3C2)o1` (centres undefined) here?
A: The melting point was 108 to 110 °C.

Q: For `CC(C)(C)OC(=O)Nc1ccc(-c2cccc(F)c2F)cc1NC(=O)CC(=O)c1cccc(C#N)c1`, which melting point is on record?
A: Its melting point is 118 °C.

Q: With `Nc1ccc(C(=O)c2cccc(N)c2)cc1` as the molecule, how does the melting point read?
A: The melting point was 121 to 123 °C.

Q: For `CC(=O)NC1CCN(c2cccc(Cl)n2)CC1`, which melting point is on record?
A: The melting point was 153 to 155 °C.

Q: For `Cn1ccc2ccc(-c3ccc(C(F)(F)F)cc3)cc21`, which melting point is on record?
A: The melting point was 100 °C.

Q: With `NCCn1cnc2c(N)nc3ccccc3c21` as the molecule, how does the melting point read?
A: The melting point was 265 °C.

Q: With `CCOC(=O)c1cc(SC)c(I)cc1N` as the molecule, how does the melting point read?
A: The melting point was 59 to 60 °C.

Q: With `Cc1cc2c(-c3ccc(Br)cc3)c(CC(=O)Nc3ccc(F)cc3C(F)(F)F)c(=O)oc2cc1Cl` as the molecule, how does the melting point read?
A: Its melting point is 262 to 264 °C.

Q: Which melting point does the source give for `Nc1cc(O)cc2cc(-c3ccc(O)cc3)oc12` here?
A: Its melting point is 251 to 254 °C.

Q: For `O=C(O)c1cccc(NCc2cccc(Cl)c2)c1C(=O)O`, which melting point is on record?
A: The melting point was 207 to 209 °C.

Q: For `Fc1cc(F)c2c(c1)CC(n1cc[nH]c1=S)C2` (centres undefined), which melting point is on record?
A: The melting point was 185 to 186 °C.

Q: With `Cc1nnc2ccc(-c3ccccc3F)nn12` as the molecule, how does the melting point read?
A: Its melting point is 147 to 149 °C.

Q: For `CNc1nc(-c2ccccc2)c(-c2nc3ccccc3c(=O)n2-c2ccc(Cl)cc2)s1`, which melting point is on record?
A: Its melting point is greater than 275 °C.

Q: For `CC(C)(C)c1ccc(C(=O)Nc2cn3cc(-c4ccncc4)ccc3n2)cc1`, which melting point is on record?
A: The melting point was 293 to 294 °C.

Q: Which melting point does the source give for `CNC(=O)c1cc(-c2ccc(OC)cc2)nn(CC(=O)Nc2ccc(SC)cc2)c1=O` here?
A: Its melting point is 231 to 232 °C.

Q: For `CC1CCC(N(CC2CCC(CN(C(=O)Nc3ccc(N(C)C)cc3)C3CCC(C)CC3)CC2)C(=O)Nc2ccc(N(C)C)cc2)CC1` (centres undefined), which melting point is on record?
A: The melting point was 150 to 153 °C.

Q: Which melting point does the source give for `COc1ccc(CCl)c(F)c1OC` here?
A: Its melting point is 44.5 to 47.5 °C.

Q: Which melting point does the source give for `COc1ccc(-c2nnc(Cl)cc2C)cc1` here?
A: The melting point was 132 °C.

Q: Which melting point does the source give for `O=C1c2ccccc2C(=O)N1OCc1nc(=O)c(O)c[nH]1` here?
A: Its melting point is 174 to 175 °C.

Q: Which melting point does the source give for `Cc1nc2cc(NC(=O)c3cc4cc(F)cnc4n3Cc3ccncc3)ccc2n1C` here?
A: Its melting point is 263 to 265 °C.

Q: Which melting point does the source give for `CCC(C(=O)O)c1ccc2c(=O)c3ccccc3ccc2c1` (centres undefined) here?
A: The melting point was 147 to 148 °C.

Q: Which melting point does the source give for `CCn1c(=O)c2c(nc(/C=C/c3ccc(OCOC)c(OC)c3)n2C)n(CC)c1=O` here?
A: The melting point was 179 to 181 °C.

Q: With `Cc1ccnc(-c2cc(CO)ccn2)c1` as the molecule, how does the melting point read?
A: Its melting point is 110 to 112 °C.

Q: With `CC(=O)OCC(=O)NNC(=O)c1ccc2occ(-c3cccc(OC(F)(F)F)c3)c2c1` as the molecule, how does the melting point read?
A: The melting point was 161 to 162 °C.

Q: With `Cc1nnsc1C(=O)NS(=O)(=O)c1ccc(Cl)cc1` as the molecule, how does the melting point read?
A: Its melting point is 165 °C.

Q: With `CC(C)C(NC(=O)OC(C)(C)C)C(=O)NC(C(=O)OCC1OC(n2cc(C=CBr)c(=O)[nH]c2=O)CC1N=[N+]=[N-])C(C)C` (centres undefined) as the molecule, how does the melting point read?
A: Its melting point is 95 to 97 °C.

Q: For `COc1ccc(C=CC(=O)c2cccc(OC)c2OC)cc1Oc1ccccc1`, which melting point is on record?
A: Its melting point is 63.3 to 64 °C.

Q: With `COc1c(C)c(C)c(OC)c(C(O)(c2cccnc2)C2CCCC2)c1C` (centres undefined) as the molecule, how does the melting point read?
A: Its melting point is 126 to 127 °C.

Q: Which melting point does the source give for `Cc1sc(-n2cccc2)c(C#N)c1C` here?
A: Its melting point is 45 °C.

Q: With `COC(=O)c1sccc1S(=O)(=O)Nc1onc(C)c1Br` as the molecule, how does the melting point read?
A: Its melting point is 188 to 194 °C.

Q: For `CC1C(Cl)(Cl)C1(C)c1ccc(O)cc1` (centres undefined), which melting point is on record?
A: The melting point was 79 to 82 °C.

Q: With `CC(=O)OCC1OC(n2c(Cl)nc3c(Br)c(Br)ccc32)C(OC(C)=O)C1OC(C)=O` (centres undefined) as the molecule, how does the melting point read?
A: The melting point was 129 to 130 °C.

Q: Which melting point does the source give for `CC(C)C(=O)N(O)C(C)c1cc2ccccc2s1` (centres undefined) here?
A: The melting point was 132 to 138 °C.

Q: Which melting point does the source give for `O=C(NC(Cc1ccc(OCc2ccccc2)cc1)C(=O)O)c1cn2ccc(-c3ccc(Cl)cc3)cc2n1` (centres undefined) here?
A: Its melting point is 248 to 249 °C.

Q: Which melting point does the source give for `Cc1ccc2c(c1)C=Cc1oc(C)nc1C2c1cn(C)c(=O)[nH]c1=S` (centres undefined) here?
A: The melting point was 146 to 150 °C.

Q: For `Nc1cc(/C=C/c2cc(/C=C/c3ccc4cc[nH]c4c3)[nH]n2)ccc1O`, which melting point is on record?
A: The melting point was 123 to 126 °C.

Q: With `CCc1c(C(=O)C(N)=O)c2c(NCC(=O)OC)cccc2n1Cc1ccccc1` as the molecule, how does the melting point read?
A: The melting point was 188 to 193 °C.

Q: Which melting point does the source give for `NS(=O)(=O)c1cc(C(=O)O)cc(SCc2ccsc2)c1Oc1ccccc1` here?
A: The melting point was 222 to 224 °C.

Q: With `O=c1c(CCO)c(O)c2cccnc2n1-c1cccc([N+](=O)[O-])c1` as the molecule, how does the melting point read?
A: Its melting point is 244 to 245 °C.

Q: For `CCCN(CCC)C(=O)CNc1nc(-c2ccccc2)nc(C(C)C)c1C`, which melting point is on record?
A: Its melting point is 98 to 99 °C.

Q: With `COCC(=O)c1cnc(C2OCCO2)s1` as the molecule, how does the melting point read?
A: Its melting point is 65 to 66 °C.

Q: With `CCOC(=O)C(=CNc1ccc(OC)c(=O)cc1)C(=O)OCC` as the molecule, how does the melting point read?
A: Its melting point is 108 to 110 °C.

Q: With `O=C(O)CCc1cnoc1-c1cccc(Cl)c1` as the molecule, how does the melting point read?
A: Its melting point is 110 to 111 °C.

Q: With `O=C(NC[C@@H](C(=O)NO)N1CCCCC1)c1ccc(OCc2ccnc(-c3ccccc3)c2)cc1` as the molecule, how does the melting point read?
A: Its melting point is 177 °C.

Q: For `Clc1nc2cc(Cl)c(Cl)cc2[nH]1`, which melting point is on record?
A: Its melting point is 212 to 214 °C.

Q: For `CCCCCCCCOc1ccc(C(=O)Oc2cc(Cl)c(Cl)cc2Cl)cc1`, which melting point is on record?
A: The melting point was 53 °C.

Q: With `CN(C(c1ccc(F)cc1)c1ccc(Cl)cc1Cl)n1cncn1` (centres undefined) as the molecule, how does the melting point read?
A: The melting point was 118 to 119 °C.

Q: With `CC(C)c1ccccc1N1C(=O)CON(C)C1=S` as the molecule, how does the melting point read?
A: Its melting point is 98 to 101 °C.

Q: For `CCOC(=O)N1CCC(Nc2cc(OC)ccc2[N+](=O)[O-])CC1`, which melting point is on record?
A: Its melting point is 115 to 117 °C.

Q: With `C(=Cc1ccccc1)Cn1ccnc1` as the molecule, how does the melting point read?
A: The melting point was 37 to 38 °C.

Q: Which melting point does the source give for `CCCCCCCCCCCCCCCCCCSc1ccc(O)cc1` here?
A: The melting point was 95 °C.

Q: With `OC1(c2ccc(Br)cc2)CCN(CCCc2noc3cc(F)ccc23)CC1` as the molecule, how does the melting point read?
A: The melting point was 138 to 145 °C.

Q: Which melting point does the source give for `CC(=O)Oc1ccc2c(c1)CCC1C2CCC2(C)C1CC(O)C2N(C)C` (centres undefined) here?
A: Its melting point is 173 to 175 °C.

Q: For `O=Cc1ccc2[nH]cc(CCCCN3CC=C(c4ccccc4)CC3)c2c1`, which melting point is on record?
A: Its melting point is 131 °C.

Q: With `O=C1NC(=O)c2c1cnc1[nH]ncc21` as the molecule, how does the melting point read?
A: The melting point was 285 to 300 °C.

Q: Which melting point does the source give for `COC1CCN(Cc2ccc(COc3cccc4c3CN(C3CCC(=O)NC3=O)C4=O)cc2)CC1` (centres undefined) here?
A: The melting point was 149 to 151 °C.

Q: Which melting point does the source give for `COC(=O)C1=NN(c2ccccc2)C(C(=O)OC)=NN1c1ccccc1` here?
A: The melting point was 171 to 172 °C.

Q: For `CN(C(=N)N)c1nccc(Oc2ccc(NC(=O)c3cc(F)cc(N4CCOCC4)c3)c3ccccc23)n1`, which melting point is on record?
A: The melting point was 155 to 157 °C.

Q: For `CCc1cc(C)cc(CC)c1C1C(=O)N2CCOCCN2C1=O`, which melting point is on record?
A: The melting point was 193 to 194 °C.

Q: With `CS(=O)(=O)c1ccc(-c2cc(/C=C/CO)nn2C2CCCCC2)cc1` as the molecule, how does the melting point read?
A: The melting point was 121 °C.

Q: For `Cc1ccc(N(c2ccc(C)cc2)c2ccc(C=C3c4ccccc4C=Cc4ccccc43)cc2)cc1`, which melting point is on record?
A: Its melting point is 168 to 169 °C.

Q: For `O=C1CCN(c2c(F)cc([N+](=O)[O-])cc2F)CC1`, which melting point is on record?
A: Its melting point is 130 to 132 °C.

Q: With `OC(c1ccc(Cl)cc1)c1cccnc1-n1ccnc1` (centres undefined) as the molecule, how does the melting point read?
A: The melting point was 133 to 134 °C.

Q: For `N#CCC#CC1(c2ccc(Cl)cc2)CC1`, which melting point is on record?
A: Its melting point is 62 to 64 °C.

Q: With `O=C(O)/C=C/c1ccc(C(=O)NC2CCCCC2)cc1` as the molecule, how does the melting point read?
A: Its melting point is 214 °C.

Q: Which melting point does the source give for `CCOC(Cc1ccc(OCc2nc(C(C)(C)C)oc2C)c2ccsc12)C(=O)O` (centres undefined) here?
A: Its melting point is 179 to 180 °C.

Q: For `N#CC(c1ccccn1)c1cccs1` (centres undefined), which melting point is on record?
A: The melting point was 48 to 50 °C.

Q: With `CCn1ccc(=O)[nH]c1=O` as the molecule, how does the melting point read?
A: Its melting point is 150 °C.

Q: Which melting point does the source give for `CCC[C@H]1CC[C@H]([C@H]2CC[C@H](C3=CC(=O)CCC3)CC2)CC1` here?
A: The melting point was 96 °C.

Q: Which melting point does the source give for `CCn1c(=O)c2c(nc(/C=C/c3cc(OC)ccc3OC(C)=O)n2C)n(CC)c1=O` here?
A: Its melting point is 186 to 187 °C.

Q: For `COc1cc2c(Nc3ccc(Cl)cc3F)ncnc2cc1OCCCOc1ccncc1`, which melting point is on record?
A: Its melting point is 138 to 140 °C.
